Patent US20260285850A1, “SUBSTITUTED OXAZOLIDINONES AND IMIDAZOLINONES AS HERBICIDES” (FMC CORPORATION, priority 2023, published 2026)

What was measured:
Type in all cases: in vivo
[1] = system: ducksalad (Heteranthera limosa); assay: Test B flooded paddy test, visual plant response rating 0-100; conditions: 250 g ai/ha, Flood, applied to paddy water, evaluated after 13 days
In short: (§1)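 Visual scores versus untreated controls were recorded 13 days after treatment of greenhouse-held plants. At the 2-leaf stage, pots were flooded 3 cm above the soil surface and compounds added straight to the water.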

[2] = system: barnyardgrass (Echinochloa crusgalli); assay: as above; conditions: 250 g ai/ha, Flood, applied to paddy water, evaluated after 13 days
In short: as §1

[3] = system: sedge, umbrella (small-flower umbrella sedge, Cyperus difformis); assay: as above; conditions: 250 g ai/ha, Flood, applied to paddy water, evaluated after 13 days
In short: as §1

[4] = system: rice (Oryza sativa); assay: as above; conditions: 250 g ai/ha, Flood, applied to paddy water, evaluated after 13 days
In short: as §1

[5] = system: corn (Zea mays); assay: Test A postemergence application, visual injury rating 0-100
In short: (§2)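 Greenhouse test: loam/sand pots received a surfactant-containing formulation, as a preemergence directed soil spray or a postemergence spray on young plants. Injury was judged visually at day 10 relative to untreated controls.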

[6] = system: galium (catchweed bedstraw, Galium aparine); assay: as above
In short: as §2

[7] = system: green foxtail (Setaria viridis); assay: as above
In short: as §2

[8] = system: blackgrass (Alopecurus myosuroides); assay: as above
In short: as §2

[9] = system: oat, wild (wild oat, Avena fatua); assay: as above
In short: as §2

[10] = system: ragweed (common ragweed, Ambrosia artemisiifolia); assay: as above
In short: as §2

[11] = system: ryegrass, Italian (italian ryegrass, Lolium multiflorum); assay: as above
In short: as §2

[12] = system: wheat (Triticum aestivum); assay: as above
In short: as §2

[13] = system: barnyardgrass (Echinochloa crus-galli); assay: as above
In short: as §2

[14] = system: horseweed (Erigeron canadensis); assay: as above
In short: as §2

[15] = system: soybean (Glycine max); assay: as above
In short: as §2

[16] = system: palmer (palmer amaranth, palmer pigweed, Amaranthus palmeri); assay: as above
In short: as §2

[17] = system: kochia (Bassia scoparia); assay: as above
In short: as §2

[18] = system: corn (Zea mays); assay: Test A preemergence soil spray, visual injury rating 0-100; conditions: 10 days
In short: as §2

[19] = system: green foxtail (Setaria viridis); assay: as above; conditions: 10 days
In short: as §2

[20] = system: blackgrass (Alopecurus myosuroides); assay: as above; conditions: 10 days
In short: as §2

[21] = system: oat, wild (wild oat, Avena fatua); assay: as above; conditions: 10 days
In short: as §2

[22] = system: ragweed (common ragweed, Ambrosia artemisiifolia); assay: as above; conditions: 10 days
In short: as §2

[23] = system: ryegrass, Italian (italian ryegrass, Lolium multiflorum); assay: as above; conditions: 10 days
In short: as §2

[24] = system: wheat (Triticum aestivum); assay: as above; conditions: 10 days
In short: as §2

[25] = system: barnyardgrass (Echinochloa crus-galli); assay: as above; conditions: 10 days
In short: as §2

[26] = system: soybean (Glycine max); assay: as above; conditions: 10 days
In short: as §2

[27] = system: palmer (palmer amaranth, palmer pigweed, Amaranthus palmeri); assay: as above; conditions: 10 days
In short: as §2

[28] = system: kochia (Bassia scoparia); assay: as above; conditions: 10 days
In short: as §2

[29] = 62 g ai/ha, postemergence, 10 days, 0 = no effect, 100 = complete control
[30] = Postemergence, 16 g ai/ha, greenhouse 10 days, 0 no effect, 100 complete control
[31] = 62 g ai/ha, 0 = no effect, 100 = complete control
[32] = 125 g ai/ha, 0 = no effect, 100 = complete control

CC(C)COC(=O)C1=CCC(NC(=O)C2(C)CN(c3cc(F)cc(F)c3)C(=O)O2)C1 (centres unmarked) [Compound 98]
Plant response rating, Ducksalad (0 to 100 scale, 0 is no effect and 100 is complete control) [1]: 75
Plant response rating, Barnyardgrass (0 to 100 scale, 0 is no effect and 100 is complete control) [2]: 65
Plant response rating, Sedge, Umbrella (0 to 100 scale, 0 is no effect and 100 is complete control) [3]: 98
Plant response rating, Rice (0 to 100 scale, 0 is no effect and 100 is complete control) [4]: 70
Corn plant response rating (0-100) [5, 29]: 100
Corn plant response rating (0 to 100 scale) [5, 30]: 90
Galium plant response rating (0-100) [6, 29]: 90
Galium plant response rating (0 to 100 scale) [6, 30]: 80
Foxtail, Green plant response rating (0-100) [7, 29]: 90
Foxtail, Green plant response rating (0 to 100 scale) [7, 30]: 80
Blackgrass plant response rating (0-100) [8, 29]: 90
Blackgrass plant response rating (0 to 100 scale) [8, 30]: 80
Oat, Wild plant response rating (0-100) [9, 29]: 100
Oat, Wild plant response rating (0 to 100 scale) [9, 30]: 60
Ragweed plant response rating (0-100) [10, 29]: 60
Ragweed plant response rating (0 to 100 scale) [10, 30]: 50
Ryegrass, Italian plant response rating (0-100) [11, 29]: 90
Ryegrass, Italian plant response rating (0 to 100 scale) [11, 30]: 80
Wheat plant response rating (0-100) [12, 29]: 80
Wheat plant response rating (0 to 100 scale) [12, 30]: 70
Barnyardgrass plant response rating (0-100) [13, 29]: 100
Barnyardgrass plant response rating (0 to 100 scale) [13, 30]: 100
Horseweed plant response rating (0-100) [14, 29]: 60
Horseweed plant response rating (0 to 100 scale) [14, 30]: 20
Soybean plant response rating (0-100) [15, 29]: 60
Soybean plant response rating (0 to 100 scale) [15, 30]: 50
Pigweed, Palmer plant response rating (0-100) [16, 29]: 90
Pigweed, Palmer plant response rating (0 to 100 scale) [16, 30]: 70
Kochia plant response rating (0-100) [17, 29]: 90
Kochia plant response rating (0 to 100 scale) [17, 30]: 80
Corn plant response rating ([18]; 16 g ai/ha, 0 to 100 scale): 0
Corn plant response rating (0-100) [18, 31]: 90
Corn plant response rating (0 to 100 scale) [18, 32]: 20
Foxtail, Green plant response rating ([19]; 16 g ai/ha, 0 to 100 scale): 70
Foxtail, Green plant response rating (0-100) [19, 31]: 100
Blackgrass plant response rating ([20]; 16 g ai/ha, 0 to 100 scale): 10
Blackgrass plant response rating (0-100) [20, 31]: 50
Blackgrass plant response rating (0 to 100 scale) [20, 32]: 0
Oat, Wild plant response rating ([21]; 16 g ai/ha, 0 to 100 scale): 0
Oat, Wild plant response rating (0-100) [21, 31]: 40
Oat, Wild plant response rating (0 to 100 scale) [21, 32]: 20
Ragweed plant response rating ([22]; 16 g ai/ha, 0 to 100 scale): 0
Ragweed plant response rating (0-100) [22, 31]: 0
Ragweed plant response rating (0 to 100 scale) [22, 32]: 50
Ryegrass, Italian plant response rating ([23]; 16 g ai/ha, 0 to 100 scale): 0
Ryegrass, Italian plant response rating (0-100) [23, 31]: 80
Ryegrass, Italian plant response rating (0 to 100 scale) [23, 32]: 80
Wheat plant response rating ([24]; 16 g ai/ha, 0 to 100 scale): 30
Wheat plant response rating (0-100) [24, 31]: 90
Wheat plant response rating (0 to 100 scale) [24, 32]: 70
Barnyardgrass plant response rating ([25]; 16 g ai/ha, 0 to 100 scale): 10
Barnyardgrass plant response rating (0-100) [25, 31]: 90
Barnyardgrass plant response rating (0 to 100 scale) [25, 32]: 70
Soybean plant response rating ([26]; 16 g ai/ha, 0 to 100 scale): 0
Soybean plant response rating (0-100) [26, 31]: 50
Soybean plant response rating (0 to 100 scale) [26, 32]: 10
Pigweed, Palmer plant response rating ([27]; 16 g ai/ha, 0 to 100 scale): 10
Pigweed, Palmer plant response rating (0-100) [27, 31]: 50
Amaranth, Palmer plant response rating (0 to 100 scale) [27, 32]: 100
Kochia plant response rating ([28]; 16 g ai/ha, 0 to 100 scale): 80
Kochia plant response rating (0-100) [28, 31]: 90
Kochia plant response rating (0 to 100 scale) [28, 32]: 90
